Laboratory results: patent publication US20230031406A1, “COMPOUNDS AND COMPOSITIONS FOR TREATING CONDITIONS ASSOCIATED WITH NLRP ACTIVITY” (Novartis AG, priority 2018, published 2023)

system: PMA-differentiated THP-1 cells; assay: IL-1β production in PMA-differentiated THP-1 cells stimulated with gramicidin (hTHP-1 assay containing 2% fetal bovine serum; Procedures 1 and 2); assay type: cell-based, human; conditions: Homo sapiens, THP-1, Table B2; 2% fetal bovine serum; class symbols; read-out: hTHP-1 IC50
Method in brief: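 Human monocytic THP-1 cells, matured overnight with PMA at 20 ng/ml, are seeded in low-serum (2% FBS) RPMI. Test compounds, at final concentrations from 100 down to 0.0017 μM, precede gramicidin (5 μM, 2 h) by one hour. Released IL-1β is then determined by HTRF.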

SMILES | IC50 [µM]
NS(=O)(=NC(=O)Nc1c2c(nc3c1CCC3)CCC2)c1ccn(CC(F)(F)F)n1 (single isomer, unassigned) [Compound 685b, (R) or (S)-N′-((1,2,3,5,6,7-hexahydrodicyclopenta [b,e]pyridin-8-yl)carbamoyl)-1-(2,2,2-trifluoroethyl)-1H-pyrazole-3-sulfonimidamide] | 1 to 5
CC(C)(O)c1cc(Br)c(S(N)(=O)=NC(=O)Nc2c3c(nc4c2CCC4)CCC3)s1 (single isomer, unassigned) [Compound 690b, (R) or (S)-3-Bromo-N′-((1,2,3,5,6,7-hexahydrodicyclopenta [b,e]pyridin-8-yl)carbamoyl)-5-(2-hydroxypropan-2-yl)thiophene-2-sulfonimidamide] | 1 to 5
Cc1cc(C(C)(C)O)sc1S(N)(=O)=NC(=O)Nc1c2c(nc3c1CCC3)CCC2 (single isomer, unassigned) [Compound 695b, (R) or (S)-N′-((1,2,3,5,6,7-hexahydrodicyclopenta [b,e]pyridin-8-yl)carbamoyl)-5-(2-hydroxypropan-2-yl)-3-methylthiophene-2-sulfonimidamide] | 5 to 30

The remaining lines, values ahead:

IC50 [µM] | SMILES
5 to 30 | Cc1cn(C(C)C)nc1S(N)(=O)=NC(=O)Nc1c2c(nc3c1CCC3)CCC2 (single isomer, unassigned) [Compound 687b, (R) or (S)-N′-((1,2,3,5,6,7-hexahydrodicyclopenta [b,e]pyridin-8-yl)carbamoyl)-1-isopropyl-4-methyl-1H-pyrazole-3-sulfonimidamide]
5 to 30 | COCc1nc(C(C)(C)O)sc1S(N)(=O)=NC(=O)Nc1c2c(nc3c1CCC3)CCC2 (single isomer, unassigned) [Compound 689b, (R) or (S)-N′-((1,2,3,5,6,7-hexahydrodicyclopenta [b,e]pyridin-8-yl)carbamoyl)-2-(2-hydroxypropan-2-yl)-4-(methoxymethyl) thiazole-5-sulfonimidamide]
1 to 5 | CC(C)n1cc(Cl)c(S(N)(=O)=NC(=O)Nc2c3c(nc4c2CCC4)CCC3)n1 (single isomer, unassigned) [Compound 694b, (R) or (S)-4-Chloro-N′-((1,2,3,5,6,7-hexahydrodicyclopenta [b,e]pyridin-8-yl)carbamoyl)-1-isopropyl-1H-pyrazole-3-sulfonimidamide]

same assay, conditions: Homo sapiens, THP-1, Table B2; 2% fetal bovine serum; numeric bounds; read-out: hTHP-1 IC50

SMILES | IC50 [µM]
NS(=O)(=NC(=O)Nc1c2c(nc3c1CCC3)CCC2)c1ccn(CC(F)(F)F)n1 (single isomer, unassigned) [Compound 685a, (S) or (R)-N′-((1,2,3,5,6,7-hexahydrodicyclopenta [b,e]pyridin-8-yl)carbamoyl)-1-(2,2,2-trifluoroethyl)-1H-pyrazole-3-sulfonimidamide] | > 30
Cc1cn(C(C)C)nc1S(N)(=O)=NC(=O)Nc1c2c(nc3c1CCC3)CCC2 (single isomer, unassigned) [Compound 687a, (S) or (R)-N′-((1,2,3,5,6,7-hexahydrodicyclopenta [b,e]pyridin-8-yl)carbamoyl)-1-isopropyl-4-methyl-1H-pyrazole-3-sulfonimidamide] | > 30
COCc1nc(C(C)(C)O)sc1S(N)(=O)=NC(=O)Nc1c2c(nc3c1CCC3)CCC2 (single isomer, unassigned) [Compound 689a, (S) or (R)-N′-((1,2,3,5,6,7-hexahydrodicyclopenta [b,e]pyridin-8-yl)carbamoyl)-2-(2-hydroxypropan-2-yl)-4-(methoxymethyl) thiazole-5-sulfonimidamide] | > 30
CC(C)(O)c1cc(Br)c(S(N)(=O)=NC(=O)Nc2c3c(nc4c2CCC4)CCC3)s1 (single isomer, unassigned) [Compound 690a, (S) or (R)-3-Bromo-N′-((1,2,3,5,6,7-hexahydrodicyclopenta [b,e]pyridin-8-yl)carbamoyl)-5-(2-hydroxypropan-2-yl)thiophene-2-sulfonamidamide] | > 30
CC(C)n1cc(Cl)c(S(N)(=O)=NC(=O)Nc2c3c(nc4c2CCC4)CCC3)n1 (single isomer, unassigned) [Compound 694a, (S) or (R)-4-Chloro-N′-((1,2,3,5,6,7-hexahydrodicyclopenta [b,e]pyridin-8-yl)carbamoyl)-1-isopropyl-1H-pyrazole-3-sulfonimidamide] | > 30
Cc1cc(C(C)(C)O)sc1S(N)(=O)=NC(=O)Nc1c2c(nc3c1CCC3)CCC2 (single isomer, unassigned) [Compound 695a, (S) or (R)-N′-((1,2,3,5,6,7-hexahydrodicyclopenta [b,e]pyridin-8-yl)carbamoyl)-5-(2-hydroxypropan-2-yl)-3-methylthiophene-2-sulfonimidamide] | > 30

same assay, conditions: Table B2; 2% fetal bovine serum; class symbols; read-out: hTHP-1 IC50

SMILES | IC50 [µM]
CC(C)(O)c1cnc(S(N)(=O)=NC(=O)Nc2c3c(nc4c2CCC4(C)C)CCC3)s1 (single isomer, unassigned) [Compound 686b, (R) or (S)-N′-((3,3-dimethyl-1,2,3,5,6,7-hexahydrodicyclopenta [b,e]pyridin-8-yl)carbamoyl)-5-(2-hydroxypropan-2-yl)thiazole-2-sulfonimidamide] | 5 to 30
CC(C)(O)c1sc(S(N)(=O)=NC(=O)Nc2c3c(nc4c2CCC4)CCC3)cc1Cl (single isomer, unassigned) [Compound 688b, (S) or (R)-4-Chloro-N′-((1,2,3,5,6,7-hexahydrodicyclopenta [b,e]pyridin-8-yl)carbamoyl)-5-(2-hydroxypropan-2-yl)thiophene-2-sulfonimidamide] | 5 to 30
CC(C)(O)c1cc(Cl)c(S(N)(=O)=NC(=O)Nc2c3c(nc4c2CCC4)CCC3)s1 (single isomer, unassigned) [Compound 691a, (S) or (R)-3-Chloro-N′-((1,2,3,5,6,7-hexahydrodicyclopenta [b,e]pyridin-8-yl)carbamoyl)-5-(2-hydroxypropan-2-yl)thiophene-2-sulfonimidamide] | 5 to 30
CC(C)(O)c1cc(Cl)c(S(N)(=O)=NC(=O)Nc2c3c(nc4c2CCC4)CCC3)s1 (single isomer, unassigned) [Compound 691b, (R) or (S)-3-Chloro-N′-((1,2,3,5,6,7-hexahydrodicyclopenta [b,e]pyridin-8-yl)carbamoyl)-5-(2-hydroxypropan-2-yl)thiophene-2-sulfonimidamide] | 1 to 5
Cc1cc(S(N)(=O)=NC(=O)Nc2c3c(nc4c2CCC4)CCC3)sc1C(C)(C)O (single isomer, unassigned) [Compound 692b, (R) or (S)-N′-((1,2,3,5,6,7-hexahydrodicyclopenta [b,e]pyridin-8-yl)carbamoyl)-5-(2-hydroxypropan-2-yl)-4-methylthiophene-2-sulfonimidamide] | 1 to 5
CCn1ccc(S(N)(=O)=NC(=O)Nc2c3c(nc4c2CCC4(C)C)CCC3)n1 (single isomer, unassigned) [Compound 697a, (S) or (R)-N′-((3,3-dimethyl-1,2,3,5,6,7-hexahydrodicyclopenta [b,e]pyridin-8-yl)carbamoyl)-1-ethyl-1H-pyrazole-3-sulfonimidamide] | 5 to 30
CCn1ccc(S(N)(=O)=NC(=O)Nc2c3c(nc4c2CCC4(C)C)CCC3)n1 (single isomer, unassigned) [Compound 697b, (R) or (S)-N′-((3,3-dimethyl-1,2,3,5,6,7-hexahydrodicyclopenta [b,e]pyridin-8-yl)carbamoyl)-1-ethyl-1H-pyrazole-3-sulfonimidamide] | 0.04 to 0.2
CCc1c(C(F)(F)F)nc2c(c1NC(=O)N=S(N)(=O)c1cc(C(C)(C)O)cs1)CCC2 (single isomer, unassigned) [Compound 698b, (R) or (S)-N′-((3-ethyl-2-(trifluoromethyl)-6,7-dihydro-5H-cyclopenta[b]pyridin-4-yl)carbamoyl)-4-(2-hydroxypropan-2-yl)thiophene-2-sulfonimidamide] | 0.2 to 1

Second part, the compound after the results:

IC50 [µM] | SMILES
5 to 30 | CC(C)(O)c1cncc(S(N)(=O)=NC(=O)Nc2c3c(nc4c2CCC4(C)C)CCC3)c1 (single isomer, unassigned) [Compound 684b, (S) or (R)-N′-((3,3-dimethyl-1,2,3,5,6,7-hexahydrodicyclopenta [b,e]pyridin-8-yl)carbamoyl)-5-(2-hydroxypropan-2-yl)pyridine-3-sulfonimidamide]
0.2 to 1 | CC(C)(O)c1cnc(S(N)(=O)=NC(=O)Nc2c3c(nc4c2CCC4(C)C)CCC3)s1 (single isomer, unassigned) [Compound 686a, (S) or (R)-N′-((3,3-dimethyl-1,2,3,5,6,7-hexahydrodicyclopenta [b,e]pyridin-8-yl)carbamoyl)-5-(2-hydroxypropan-2-yl)thiazole-2-sulfonimidamide]
0.2 to 1 | CC(C)(O)c1sc(S(N)(=O)=NC(=O)Nc2c3c(nc4c2CCC4)CCC3)cc1Cl (single isomer, unassigned) [Compound 688a, (R) or (S)-4-Chloro-N′-((1,2,3,5,6,7-hexahydrodicyclopenta [b,e]pyridin-8-yl)carbamoyl)-5-(2-hydroxypropan-2-yl)thiophene-2-sulfonimidamide]
5 to 30 | Cc1cc(S(N)(=O)=NC(=O)Nc2c3c(nc4c2CCC4)CCC3)sc1C(C)(C)O (single isomer, unassigned) [Compound 692a, (S) or (R)-N′-((1,2,3,5,6,7-hexahydrodicyclopenta [b,e]pyridin-8-yl)carbamoyl)-5-(2-hydroxypropan-2-yl)-4-methylthiophene-2-sulfonimidamide]
1 to 5 | CCc1c(C(F)(F)F)nc2c(c1NC(=O)N=S(N)(=O)c1cc(C(C)(C)O)cs1)CCC2 (single isomer, unassigned) [Compound 698a, (S) or (R)-N′-((3-ethyl-2-(trifluoromethyl)-6,7-dihydro-5H-cyclopenta[b]pyridin-4-yl)carbamoyl)-4-(2-hydroxypropan-2-yl)thiophene-2-sulfonimidamide]
